Common to all, as to format: physicochemical
Data set [1] is described as follows: HPLC chemical purity of milled suspensions (stability to milling). How it is done: (§1) A milling procedure was employed in which aqueous dispersions containing coarse compound particles were individually milled with F127 at near-neutral pH buffer using a grinding medium. Briefly, a slurry containing 5% of compound and 5% F127 in PBS (0.0067 M PO4^3−), pH 7.1 was added to an equal bulk volume of 1-mm ceria-stabilized zirconium oxide beads in a glass vial (e.g., 2 mL of slurry per 2 mL of beads). A magnetic stir bar was used to agitate the beads, stirring at approximately 500 rpm at ambient conditions for 25 hours.
The HPLC method used to determine the purity of milled suspensions is as follows: column—SunFire™ C18, 3.5 μm, 3.0×150 mm, column temperature—40° C., flow rate—0.7 mL/min, detection wavelength—254 nm, flow gradient—50:50 (0 minutes) to 0:100 (10 minutes) 0.1% phosphoric acid/H2O:acetonitrile.

A short description of data set [2]: DLS particle size and PDI of hydrocortisone derivatives milled with Pluronic F127 (Examples 8, 9). Particulars: for PDI of milled suspension / Size (Z-averaged) of milled suspension: 5% compound, 5% F127 in PBS pH 7.1, milled 25 hours; for Milled suspension PDI / Milled suspension Size (Z-average): final form B. The method, then: as §1
The milled suspensions were subjected to dynamic light scattering (DLS) measurements to determine particle size and polydispersity index (PDI, a measure of the width of the particle size distribution). The samples for DLS measurements were buffered with HyClone™ PBS (Phosphate-Buffered Saline) to produce isotonic samples that have a physiologically relevant pH.
Form 3-B was wet-milled using the same method that generated the data in Tables 13 and 14.

Data set [3] can be described thus: XRPD crystal form before and after milling. Particulars: milled with F127. From the text:
Particles were isolated by centrifugation, then resuspended in H2O and then recentrifuged. The wet sample was resuspended in H2O and deposited thinly and evenly onto a flat zero background sample holder (Rigaku 906165). The sample was allowed to air dry.
Milligram amounts were packed as an evenly thin layer of solid onto a zero background sample holder (Rigaku 906165).
XRPD patterns were obtained using a Rigaku MiniFlex 600 benchtop x-ray diffractometer equipped with a Cu X-ray tube (Cu/Kα=1.54059 Å), a six-position sample changer and a D/teX Ultra detector. […] Diffraction patterns were viewed and analyzed using PDXL analysis software provided by the instrument manufacturer. A reference standard silicon powder (NIST Standard Reference Material 640d) generated a peak at 28.43° and 28.45° two theta when samples were prepared as suspension in H2O (to simulate Procedure A) and Procedure B, respectively.
Except for Crystalline Form 1-B, the XRPD samples of all other forms were prepared using Procedure A (milled compounds) or Procedure B (neat compounds). […] was used to prepare the XRPD sample of Crystalline Form 1-B.
All input crystalline forms were arbitrarily designated as “A” forms. New forms that emerged after milling, if any, were sequentially designated as “B”, “C”, etc. An “A” form was not designated for Compound 2 since the input material was amorphous.

The nature of data set [4]: DLS particle size and PDI of drugs milled with F127 or SDS (Example 6). From the text:
The technique described in Example 1 was applied to other non-polymeric solid particles to show the versatility of the approach. […] Table 12 lists the particle sizes for a representative selection of drugs that were milled using this method.

Setting [5] is: drug milled with stabilizer F127.
[6] abbreviates: drug milled with stabilizer SDS.

This note sets out measurements from patent US20190216726A1, “Particles, Compositions and Methods for Ophthalmic and/or Other Applications” (priority 2016, published 2019).

Consider `C[C@]12CCC(=O)C=C1CC[C@@H]1[C@@H]2[C@@H](O)C[C@@]2(C)[C@H]1CC[C@]2(OC(=O)Cc1ccc(Br)cc1)C(=O)CO` [Compound 3, (10R,11S,13S,17R)-11-hydroxy-17-(2-hydroxyacetyl)-10,13-dimethyl-3-oxo-2,3,6,7,8,9,10,11,12,13,14,15,16,17-tetradecahydro-1H-cyclopenta[a]phenanthren-17-yl 2-(4-bromophenyl)acetate], for which the Purity after milling in data set [1] (after milling with F127) is recorded as more than 96%. In addition, in data set [2], the “PDI of milled suspension” value came to 0.197 and the “Size (Z-averaged) of milled suspension” value came out at 341 nm. Also, in data set [2] (input form A), the “Milled suspension PDI” value is 0.197 and the “Milled suspension Size (Z-average)” value amounted to 341 nm. Further, in data set [2] (input form B), the “Milled suspension PDI” value is on record as 0.154 and the “Milled suspension Size (Z-average)” value is reported as 262 nm. For the same compound, the “Crystal form change after milling of Input forms?” value (from here on “Crystal form change after milling”) in data set [3] was “Yes”.

The compound `C[C@]12CCC(=O)C=C1CC[C@@H]1[C@@H]2[C@@H](O)C[C@@]2(C)[C@H]1CC[C@]2(OC(=O)c1ccco1)C(=O)CO` [Compound 2, (10R,11S,13S,17R)-11-hydroxy-17-(2-hydroxyacetyl)-10,13-dimethyl-3-oxo-2,3,6,7,8,9,10,11,12,13,14,15,16,17-tetradecahydro-1H-cyclopenta[a]phenanthren-17-yl furan-2-carboxylate] displayed a Purity after milling in data set [1] (after milling with F127) of more than 96%. Further, the “Size (Z-averaged) of milled suspension” value in data set [2] is 238 nm. In data set [3], the “Crystal form change after milling” value is “No”.

Take `C[C@]12C=CC(=O)C=C1CC[C@@H]1[C@@H]2[C@@H](O)C[C@@]2(C)[C@H]1CC[C@]2(O)C(=O)CO` [Prednisolone]: in data set [4] (setting [5]), the PDI was determined as 0.090 and the “Z-Ave D” value is recorded as 273 nm. In data set [4] (setting [6]), the PDI was 0.120 and the “Z-Ave D” value was 245 nm.

Regarding `COc1ccc2c(c1)c(CC(=O)O)c(C)n2C(=O)c1ccc(Cl)cc1` [Indomethacin], in data set [4] (setting [5]), the PDI is on record as 0.123 and the “Z-Ave D” value turned out to be 225 nm. In data set [4] (setting [6]), the PDI came out at 0.154 and the “Z-Ave D” value is recorded as 216 nm.

With `C[C@]12CCC(=O)C=C1CC[C@@H]1[C@@H]2[C@@H](O)C[C@@]2(C)[C@H]1CC[C@]2(OC(=O)CCS(=O)(=O)c1ccccc1)C(=O)CO` [Compound 1, (10R,11S,13S,17R)-11-hydroxy-17-(2-hydroxyacetyl)-10,13-dimethyl-3-oxo-2,3,6,7,8,9,10,11,12,13,14,15,16,17-tetradecahydro-1H-cyclopenta[a]phenanthren-17-yl 3-(phenylsulfonyl)propanoate], the Purity after milling in data set [1] (after milling with F127) is given as less than 90%; in data set [1] (after milling with F127, listed as 7), less than 90%. For the same compound, the “PDI of milled suspension” value in data set [2] stood at 0.318. For the same compound, in data set [2], the “Size (Z-averaged) of milled suspension” value worked out at 509 nm. Moreover, the “Crystal form change after milling” value in data set [3] is recorded as “Yes”.

Take `NS(=O)(=O)c1cc(C(=O)O)c(NCc2ccco2)cc1Cl` [Furosemide]: the PDI in data set [4] (setting [5]) is 0.119; in data set [4] (setting [6]) it was 0.146. Further, the figures for the “Z-Ave D” value in data set [4] (setting [5]) and in data set [4] (setting [6]) were 217 nm and 200 nm, respectively.

On to `CCC(=O)O[C@]1(C(=O)SCF)[C@H](C)C[C@H]2[C@@H]3C[C@H](F)C4=CC(=O)C=C[C@]4(C)[C@@]3(F)[C@@H](O)C[C@@]21C` [Fluticasone propionate], for which the PDI in data set [4] (setting [5]) came to 0.114; in data set [4] (setting [6]), 0.193. Further, the results for the “Z-Ave D” value in data set [4] (setting [5]) and in data set [4] (setting [6]) were 203 nm and 202 nm, respectively.

As to `CCOC(=O)O[C@]1(C(=O)OCCl)CC[C@H]2[C@@H]3CCC4=CC(=O)C=C[C@]4(C)[C@H]3[C@@H](O)C[C@@]21C` [Loteprednol etabonate], in data set [4] (setting [5]), the PDI turned out to be 0.123 and the “Z-Ave D” value was found to be 241 nm. Besides, in data set [4] (setting [6]), the PDI was determined as 0.130 and the “Z-Ave D” value was 241 nm.
